Laboratory results taken from US8552175B2, “Sulfur transfer reagents for oligonucleotide synthesis” (A.M. Chemicals, Inc., priority 2009, dated 2013).

Assays:
[1] = test system: solid support-bound internucleosidic phosphite triesters; experiment: Sulfur transfer in solid phase synthesis of oligonucleotide phosphorothioates, HPLC and ES MS; conditions: for contact time required for complete sulfur transfer: optimized conditions

Row | Molecule | melting point | contact time required for complete sulfur transfer ([1]; 0.02 M solution of reagent) | contact time required for complete sulfur transfer ([1]; 0.05 M solution of reagent) | contact time required for complete sulfur transfer ([1]; 0.1 M solution of reagent) | performance in oligonucleotide synthesis compared with compound 1 ([1]; in words)
1 | S=c1ncss1 [Compound 6, 3H-1,2,4-dithiazol-3-thione] | 73 to 75 °C | – | – | – | –
2 | 5-Phenyl-3H-1,2,4-dithiazol-3-thione [Compound 7] | – | 2 min | 1 min | 0.5 min | substantially similar performance
